Experimental data: patent US20040175691A1, “Use of the KCNQ2 and KCNQ3 genes for the discovery of agents useful in the treatment of neurological disorders” (priority 1998, published 2004)

Key:
elk1 = molecular target: T1, elk1 (Rattus norvegicus, UniProt Q9QWS8); assay: Blockade of cloned elk1 channel in oocytes; type: cell-based
T1 construct: expressed in transfected cells; host or cells: oocytes (Xenopus)
T1 sequence (Q9QWS8 1-1102): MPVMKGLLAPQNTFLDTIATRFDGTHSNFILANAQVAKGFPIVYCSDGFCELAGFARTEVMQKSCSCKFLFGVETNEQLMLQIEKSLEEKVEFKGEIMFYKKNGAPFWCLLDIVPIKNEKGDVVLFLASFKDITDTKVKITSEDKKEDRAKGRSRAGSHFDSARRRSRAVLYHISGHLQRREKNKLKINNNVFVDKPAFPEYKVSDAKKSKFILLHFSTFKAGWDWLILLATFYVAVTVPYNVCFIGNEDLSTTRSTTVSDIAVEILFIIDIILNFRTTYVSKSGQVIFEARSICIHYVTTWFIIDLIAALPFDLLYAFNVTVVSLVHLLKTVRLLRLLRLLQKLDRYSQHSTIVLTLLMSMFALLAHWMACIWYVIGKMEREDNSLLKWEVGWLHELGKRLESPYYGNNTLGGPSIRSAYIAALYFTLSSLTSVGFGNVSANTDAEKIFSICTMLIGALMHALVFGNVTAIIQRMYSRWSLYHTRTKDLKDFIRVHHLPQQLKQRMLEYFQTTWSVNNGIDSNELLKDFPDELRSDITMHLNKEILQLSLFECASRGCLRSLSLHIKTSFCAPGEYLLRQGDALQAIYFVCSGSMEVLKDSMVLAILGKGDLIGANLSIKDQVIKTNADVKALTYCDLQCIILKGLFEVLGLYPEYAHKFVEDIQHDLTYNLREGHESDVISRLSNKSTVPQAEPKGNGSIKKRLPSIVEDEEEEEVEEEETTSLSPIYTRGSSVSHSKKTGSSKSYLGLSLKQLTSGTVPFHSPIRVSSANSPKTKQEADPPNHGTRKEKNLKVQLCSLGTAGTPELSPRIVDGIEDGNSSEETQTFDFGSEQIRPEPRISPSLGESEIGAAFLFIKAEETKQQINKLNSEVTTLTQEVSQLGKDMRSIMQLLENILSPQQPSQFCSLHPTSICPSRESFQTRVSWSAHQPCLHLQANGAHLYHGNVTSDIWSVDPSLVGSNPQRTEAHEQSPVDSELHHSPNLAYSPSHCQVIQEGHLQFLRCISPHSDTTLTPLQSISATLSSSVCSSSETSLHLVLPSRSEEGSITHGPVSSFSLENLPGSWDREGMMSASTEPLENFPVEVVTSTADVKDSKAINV

[1] = tested on: phasic sympathetic neurons; assay: Firing properties of phasic sympathetic neurons from the SCG; type: cell-based, rat; conditions: 10 μM
Experimental: Method: Recordings of the M-current in sympathetic neurons in intact ganglia were performed at room temperature as described previously (Wang and McKinnon, 1995). The standard extracellular recording solution was: NaCl (133 mM, KCl (4.7 mM), NaH2PO4 (1.3 mM), NaHCO3 (16.3 mM), CaCl2 (2 mM), MgCl2 (1.2 mM) and glucose (1.4 g/liter), bubbled with 95% O2-5% CO2 to give pH 7.2-7.4.

KQT1 = molecular target: T2, KQT1 (Homo sapiens, UniProt P51787); assay: Blockade of cloned KQT1 channel in oocytes; type: cell-based
T2 construct: expressed in transfected cells; host or cells: oocytes (Xenopus)
T2 sequence (P51787 whole entry): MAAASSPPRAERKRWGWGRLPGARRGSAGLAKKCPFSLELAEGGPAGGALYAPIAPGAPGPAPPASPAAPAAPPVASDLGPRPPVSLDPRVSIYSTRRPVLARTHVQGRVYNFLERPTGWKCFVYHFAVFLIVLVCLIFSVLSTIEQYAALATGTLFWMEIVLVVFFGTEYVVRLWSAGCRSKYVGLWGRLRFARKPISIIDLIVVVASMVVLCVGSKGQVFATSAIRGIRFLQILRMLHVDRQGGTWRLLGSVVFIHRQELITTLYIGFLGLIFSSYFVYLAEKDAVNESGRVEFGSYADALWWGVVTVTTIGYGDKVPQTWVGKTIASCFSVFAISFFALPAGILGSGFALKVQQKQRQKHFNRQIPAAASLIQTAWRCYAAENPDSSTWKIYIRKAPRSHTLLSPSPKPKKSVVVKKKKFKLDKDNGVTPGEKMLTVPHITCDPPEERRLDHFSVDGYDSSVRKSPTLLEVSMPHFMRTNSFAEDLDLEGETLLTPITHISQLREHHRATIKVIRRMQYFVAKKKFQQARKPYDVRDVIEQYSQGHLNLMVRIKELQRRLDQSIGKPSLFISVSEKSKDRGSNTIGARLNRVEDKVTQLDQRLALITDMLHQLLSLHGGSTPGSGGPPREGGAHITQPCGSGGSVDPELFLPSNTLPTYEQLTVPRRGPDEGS

hKCNQ2 potassium channel = molecular target: T3, hKCNQ2 potassium channel (Homo sapiens, UniProt O43526, DEL417-446); assay: Membrane potential-evoked fluorescence (FLIPR, DiBAC) in HEK 293E cells stably expressing hKCNQ2; type: cell-based; conditions: DiBAC-loaded HEK 293E hKCNQ2 cells, FIG. 6
T3 construct: Full-length hKCNQ2 cDNAs were amplified from adult human brain cDNA; expressed in transfected cells; host or cells: 293 EBNA (HEK 293E) cells, episomal plasmid pm3AR-hKCNQ2-1, hygromycin B selection
Experimental: The ability of KCNQ2 modulators to alter membrane potential was assessed using a fluorescence imaging plate reader (FLIPR). Cultured HEK 293E cells expressing hKCNQ2 channels are plated on poly-D-lysine-coated 96-well Costar microplates (#3603) at 300,000-750,000 cells/ml and allowed to reach confluence in DMEM (with 10% FBS and 250 ug/ml hygromycin B) at 37° C. and 5% CO2. After reaching confluence, growth medium is removed, replaced with a standard Hank's balanced salt solution containing 5 uM dibac(4)3, bis-oxonol (Molecular Probes # B-438) at 37° C. The cell plate is then placed in the recording chamber (equilibrated to 37° C.) of a fluorescence imaging plate reader (FLIPR; Molecular Devices) along with two drug plates (one containing standard Hank's balanced salt solution+dibac and the other containing standard Hank's balanced salt solution+dibac+test compound at various experimental concentrations).
These cells were loaded with the voltage-sensitive fluorescent dye, DiBAC, that distributes across cell membranes in a voltage-dependent manner. As cells depolarize (become more positive inside), more dye enters the cells and an increase in fluorescence occurs.
In FIG. 7, the relative effects of several M-current modulators on the flourescence of HEK 293E cells stably expressing the hKCNQ2 potassium channel is shown. These cells were loaded with the voltage-sensitive fluorescent dye, DiBAC, that distributes across cell membranes in a voltage-dependent manner. As cells depolarize, more dye enters the cells and an increase in fluorescence occurs. Conversely, as cells hyperpolarize (become more negative inside), more dye leaves the cells and a decrease in fluorescence occurs.

M-current = molecular target: T4, M-current (Rattus norvegicus, UniProt O88943+O88944); conditions: data adapted from Costa and Brown; read-out: IC50 for blockade of M-current; cited from earlier work
T4 construct: Recordings of the M-current in sympathetic neurons in intact ganglia were performed at room temperature; from tissue

rat hippocampal neurons = rat hippocampal neurons (Lampe & Brown 1991); cited from earlier work

Row | SMILES | IC50 (elk1; oocytes) | Effect on firing properties of phasic neurons [1] | IC50 (KQT1) | IC50 (elk1; at +30 mV) | IC50 (elk1; at −20 mV) | IC50 (elk1; step to −10 mV, voltage dependent) | Change in fluorescence (membrane depolarization) (hKCNQ2 potassium channel) | IC50 (M-current) | Spike frequency adaptation (rat hippocampal neurons)
1 | O=C1c2ccccc2C(Cc2ccncc2)(Cc2ccncc2)c2ccccc21 [XE991, 10,10-bis(4-pyridinylmethyl)-9(10H)-anthracenone] | > 100 µM | converts the firing properties from phasic to tonic |  |  |  |  |  |  | 
2 | O=C1N(c2ccccc2)c2ccccc2C1(Cc1ccncc1)Cc1ccncc1 [Linopirdine, 3,3-bis(4-pyridinylmethyl)-1-phenylindolin-2-one] |  |  | 8.9 ± 0.9 µM | 144 µM | 26 µM | 37 ± 4 µM | time- and concentration-dependent increase in flourescence | 7 ± 1.1 µM | reduced spike frequency adaptation
